The target in experiment [1] is T1, PC-TP (Homo sapiens, UniProt Q9UKL6).
T1 sequence (Q9UKL6 1-214): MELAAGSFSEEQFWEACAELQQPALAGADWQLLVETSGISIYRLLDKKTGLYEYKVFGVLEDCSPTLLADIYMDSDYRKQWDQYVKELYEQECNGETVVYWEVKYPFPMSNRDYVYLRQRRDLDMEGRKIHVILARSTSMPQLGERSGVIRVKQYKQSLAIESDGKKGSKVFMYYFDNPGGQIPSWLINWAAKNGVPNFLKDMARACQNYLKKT
The experiment can be described thus: PC-TP inhibition assay (Wagle et al. method). Format: biochemical. Particulars: Table 1, concentration value. How it is done:
(§1) The compounds in Table 1 and 2 were assayed for their ability to inhibit PC-TP and StarD10, respectively, using a known assay method (see Wagle et al., 2008. Anal. Biochem. 383:85-92, which is incorporated herein by reference in its entirety). Further, certain compounds were also tested for their ability to inhibit StarD7 (see Table 2).

Experiment [2] concerns the target T2, StarD10 (Homo sapiens, UniProt Q9Y365).
T2 sequence (Q9Y365 1-291): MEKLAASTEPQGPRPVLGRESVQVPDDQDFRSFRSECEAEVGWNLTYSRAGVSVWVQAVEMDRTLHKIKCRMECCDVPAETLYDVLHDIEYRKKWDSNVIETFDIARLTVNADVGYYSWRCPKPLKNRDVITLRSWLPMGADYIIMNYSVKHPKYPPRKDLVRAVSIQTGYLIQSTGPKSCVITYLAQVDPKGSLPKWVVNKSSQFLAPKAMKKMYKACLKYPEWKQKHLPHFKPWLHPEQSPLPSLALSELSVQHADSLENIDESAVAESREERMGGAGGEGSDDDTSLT
The experiment can be described thus: StarD10 inhibition assay. Type of experiment: biochemical. How it is done: as §1

Experiment [3] has as its target T3, StarD7 (Homo sapiens, UniProt Q9NQZ5).
T3 sequence (Q9NQZ5 78-370): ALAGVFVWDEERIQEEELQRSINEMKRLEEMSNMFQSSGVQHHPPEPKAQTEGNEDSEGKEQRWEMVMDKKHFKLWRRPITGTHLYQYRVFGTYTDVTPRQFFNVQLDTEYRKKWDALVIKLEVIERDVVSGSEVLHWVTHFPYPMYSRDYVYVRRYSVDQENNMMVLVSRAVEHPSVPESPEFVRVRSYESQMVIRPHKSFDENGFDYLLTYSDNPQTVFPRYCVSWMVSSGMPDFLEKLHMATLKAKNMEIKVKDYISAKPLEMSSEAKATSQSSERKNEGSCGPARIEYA
The experiment can be described thus: StarD7 inhibition assay. Type of experiment: biochemical. The procedure: as §1

The test system of experiment [4] is insulin signaling pathway in cultured primary human hepatocytes. The experiment can be described thus: Activation of insulin signaling pathway in primary human hepatocytes (immunoblot). Type of experiment: cell-based. Particulars: serum starved hepatocytes, 60 minute exposure, doses of 0.05 and 0.10 μM, no insulin. How it is done:
Cultured primary human hepatocytes (commercially obtained) were serum starved overnight followed by 60 minute exposure to A) Compound 4 or B) Compound 16 at the indicated concentrations. Inhibitors were dissolved in DMSO. Negative controls included Control (no additions) and DMSO alone. The positive control included DMSO plus insulin (50 nM) for 30 minutes. Cells were harvested and lysates were subjected to immunoblot analyses using antibodies, as indicated.

In experiment [5] the target is T4, purified recombinant PC-TP (Homo sapiens, UniProt Q9UKL6).
T4 sequence (Q9UKL6 1-214): T1 sequence (Q9UKL6 1-214)
The experiment can be described thus: Displacement assay of PC-TP using pyrene-labeled PC. Format: binding. How it is done: Competition between the small molecule inhibitors and fluorescent pyrene-labeled phosphatidylcholine (PyrPC) for binding to PC-TP was measured using Pyr-PC fluorescent vesicles quenched with tetracyanoquinodimethane (TCNQ) (Lemmetyinen H. et al. 1989). Upon mixing of quenched Pyr-PC vesicles with purified recombinant PC-TP, the rise in Pyr-PC fluorescence reflects binding of fluorescently labeled phosphatidylcholine molecules to the active site of PC-TP. If the small molecule inhibitors enter the active site and prevent binding of phosphatidylcholine to PC-TP by competing the Pyr-PC, this should reduce the observed increase in Pyr-PC fluorescence.
The fluorescence of PyrPC monomer was measured at 392 nm on SpectraMax M5 plate-reader with excitation was set at 345 nm. Pyrene-labeled PC vesicles contained PyrPC, egg PC, and TCNQ in a molar ratio of 40:20:60. For PC and PyrPC competition assays, we used unlabeled PC vesicles composed of egg PC and TCNQ in a molar ratio of 55:45 or PC vesicles of varied lipid concentrations and PyrPC vesicles quenched with TCNQ (55:45). […] To determine the affinity of eggPC compared to PyrPC, we varied the concentration of egg PC in the assay as follows: 5, 11, 22, 27, 33, and 44 μM, and a fixed amount of PyrPC (44 μM). […] In the displacement assay, the increase in pyrene monomer fluorescence (ΔF) is proportional to the amount of [Pyr], pyrene-labeled PC bound to PC-TP. The maximal fluorescence increase (ΔFmax) at pyrene monomer emission peak (˜380-394 nm) is observed in the absence of inhibitor ([inh]=0) or unlabeled lipid ([PC]=0). The fluorescence reading of wells with PyrPC vesicles alone and Pyr-PC vesicles with inhibitor (highest background fluorescence) were used as control and subtracted as background.
As described in Van Paridon et al. 1987, by plotting ΔF as a function of ΔF·[inh]/[Pyr] […] Therefore, Krel (Compound 4/PC) can be calculated as Krel (Compound 4/PyrPC)/Krel (PC/PyrPC)=0.22.

Experiment [6] addresses T5, purified recombinant His-tag PC-TP (Homo sapiens, UniProt Q9UKL6).
T5 sequence (Q9UKL6 1-214): T1 sequence (Q9UKL6 1-214)
Description: Surface plasmon resonance binding to immobilized PC-TP. Particulars: Biacore 3000, CM5 chip, 150 s injection. How it is done:
Compound 8 was injected into a Biacore 3000 surface plasmon resonance instrument with purified recombinant His-tag PC-TP immobilized to a carboxymethyl dextran 5 ([…]) chip for 150 s and allowed to dissociate. Each sensogram was overlaid and zeroed on the y-axis to the average baseline before injection. The start injection time for each sample was set to zero on the x-axis (see FIG. 2). The KD value was 5.0 μM.

Take `Cc1cc(C)nc(NS(=O)(=O)c2ccc(NC(=O)NC(=O)c3ccc(Cl)cc3Cl)cc2)n1` [Compound 4, 2,4-dichloro-N-(4-(N-(4,6-dimethylpynmidin-2-yl)sulfamoyl)phenylcarbamoyl) benzamide]: the IC50 in experiment [1] is 4.1 µM; in experiment [2], 12 µM; in experiment [3], 63 µM. Besides, the “Activation of insulin signaling” value in experiment [4] is “activated insulin signaling”. For the same compound, the “Krel (Compound 4/PC)” value in experiment [5] (calculated as Krel (Compound 4/PyrPC)/Krel (PC/PyrPC)) was 0.22. Moreover, in experiment [5] (increasing inhibitor concentration), the “Effect on pyrene monomer fluorescence (Pyr-PC binding to PC-TP)” value is given as “diminishing fluorescence of pyrene monomer”. In addition, in experiment [5] (inhibitor 5-75 μM, PyrPC 36 μM, PC-TP 300 nM, averaged from multiple experiments), the “Krel (Compound 4/PyrPC), relative affinity constant” value is listed as 1.1+/−0.36.

For the compound `Cc1cc(C)nc(NS(=O)(=O)c2cccc(NC(=O)NC(=O)c3ccc(Cl)cc3Cl)c2)n1` [Compound 8, 2,4-dichloro-N-(3-(N-(4,6-dimethylpyrimidin-2-yl)sulfamoyl)phenylcarbamoyl) benzamide], the values for the IC50 in experiment [1] and in experiment [2] were 6.5 µM and 14 µM, respectively. The Kd in experiment [6] stood at 5 µM.

On to `O=C(Nc1cc(Cl)cc(Cl)c1)C(Sc1cccc[n+]1[O-])c1ccccc1` (centres unmarked) [Compound 16, 2-(2-(3,5-dichlorophenylamino)-2-oxo-1-phenylethylthio)pyridine 1-oxide], for which the IC50 in experiment [1] came out at 3.6 µM; in experiment [2], 20 µM; in experiment [3], 66 µM. In addition, in experiment [4], the “Activation of insulin signaling” value was “activated insulin signaling”.
